The structures appear in SMILES notation. pEC50, pIC50: −log10 of the molar value. Calls of active or inactive are those of the source. The rule behind the calls is not given here.

The target in assay [1] is T1, Progesterone receptor (Homo sapiens) (UniProt P06401).
T1 sequence (whole entry): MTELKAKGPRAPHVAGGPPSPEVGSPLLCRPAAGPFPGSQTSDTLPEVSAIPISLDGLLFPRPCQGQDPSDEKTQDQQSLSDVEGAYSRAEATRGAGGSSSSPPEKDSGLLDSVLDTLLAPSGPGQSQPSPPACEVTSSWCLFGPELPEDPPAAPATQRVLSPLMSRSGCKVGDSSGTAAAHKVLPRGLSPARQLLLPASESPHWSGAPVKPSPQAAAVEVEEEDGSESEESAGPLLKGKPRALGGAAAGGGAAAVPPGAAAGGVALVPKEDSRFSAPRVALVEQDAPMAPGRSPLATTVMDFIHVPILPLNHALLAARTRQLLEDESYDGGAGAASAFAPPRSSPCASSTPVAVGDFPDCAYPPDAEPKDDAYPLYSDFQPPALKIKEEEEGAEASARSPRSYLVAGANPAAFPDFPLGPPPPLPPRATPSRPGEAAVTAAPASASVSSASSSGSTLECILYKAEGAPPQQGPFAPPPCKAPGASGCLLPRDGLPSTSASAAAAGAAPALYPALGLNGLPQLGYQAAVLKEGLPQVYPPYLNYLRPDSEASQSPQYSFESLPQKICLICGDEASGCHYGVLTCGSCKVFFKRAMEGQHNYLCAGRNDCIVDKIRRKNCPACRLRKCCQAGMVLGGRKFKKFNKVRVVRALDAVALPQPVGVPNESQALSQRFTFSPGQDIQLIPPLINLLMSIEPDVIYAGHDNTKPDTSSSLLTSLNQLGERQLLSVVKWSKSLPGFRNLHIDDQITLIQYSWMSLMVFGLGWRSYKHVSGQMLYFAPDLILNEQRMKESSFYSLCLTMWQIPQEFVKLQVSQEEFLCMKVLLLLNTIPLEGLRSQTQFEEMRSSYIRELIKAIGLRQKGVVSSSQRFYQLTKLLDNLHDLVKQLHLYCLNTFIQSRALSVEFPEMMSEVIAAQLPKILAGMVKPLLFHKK
As to the kind of experiment: Activity against PR by transactivation activity at 30 uM.

Assay [2] concerns the target T2, Bile acid receptor (Homo sapiens, UniProt Q96RI1).
T2 sequence (Q96RI1 whole entry): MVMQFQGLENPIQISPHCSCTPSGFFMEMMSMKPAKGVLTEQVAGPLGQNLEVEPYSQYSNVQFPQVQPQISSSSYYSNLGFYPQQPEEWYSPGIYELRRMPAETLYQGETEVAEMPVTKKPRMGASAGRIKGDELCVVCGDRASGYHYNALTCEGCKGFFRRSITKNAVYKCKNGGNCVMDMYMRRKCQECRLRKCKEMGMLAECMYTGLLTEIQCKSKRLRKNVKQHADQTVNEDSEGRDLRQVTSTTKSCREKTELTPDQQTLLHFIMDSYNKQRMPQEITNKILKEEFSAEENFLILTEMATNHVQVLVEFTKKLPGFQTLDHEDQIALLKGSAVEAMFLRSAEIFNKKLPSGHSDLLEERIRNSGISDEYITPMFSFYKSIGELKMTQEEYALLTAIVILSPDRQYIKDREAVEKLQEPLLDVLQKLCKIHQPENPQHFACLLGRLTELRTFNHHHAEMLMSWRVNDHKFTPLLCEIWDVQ
As to the kind of experiment: Inhibition of FXR in HEK293 cells in presence of CDCA by GAL4 transactivation activity. Format: cell-based.

Assay [3] concerns the target T3, Bile acid receptor (Homo sapiens) (UniProt Q96RI1).
T3 sequence (whole entry): T2 sequence (Q96RI1 whole entry)
As to the kind of experiment: Activity at FXR assessed by ligand-induced co-repressor recruitment by two-hybrid assay system.

Assay [4] addresses T3, Bile acid receptor (Homo sapiens). As to the kind of experiment: Agonistic activity at FXR in HEK293 cells at 100 uM by GAL4 transactivation activity. The class given is functional, cell-based.
The target of assay [5] is T2, Bile acid receptor. As to the kind of experiment: Agonistic activity at FXR in HEK293 cells by GAL4 transactivation activity. Format: functional, cell-based.

Turning to `O=C(O)c1cccc(NC(=O)c2ccc(OCc3c(-c4c(Cl)cccc4Cl)noc3-c3ccc4ccccc4c3)cc2Cl)c1`, the outcome in assay [1], in assay [3] and in assay [4] was inactive. For the same compound, the negative-log IC50 (pIC50) (commonly the IC50 on a negative log10 scale, so that one unit is a factor of ten) on Bile acid receptor [2] was 5.40.
For `CC(C)c1onc(-c2c(Cl)cccc2Cl)c1COc1ccc(C(=O)N(CCc2ccccc2)c2cccc(C(=O)O)c2)c(Cl)c1`, the pEC50 – broadly, −log10 of the EC50, conventionally taken in molar units – on Bile acid receptor [5] is 6.08.
In the case of `CC(C)c1onc(-c2ccc(-c3ccccc3)cc2)c1COc1ccc(/C=C/c2cccc(C(=O)O)c2)c(Cl)c1`, the result in assay [4] was inactive.
On Bile acid receptor [5], `CC(C)c1onc(-c2c(Cl)cccc2Cl)c1COc1ccc(C(=O)Nc2cccc(C(=O)O)c2)c(Cl)c1` had a pEC50 of 5.52.
For the compound `CC(C)(C)c1onc(-c2c(Cl)cccc2Cl)c1COc1ccc(C(=O)Nc2cccc(C(=O)O)c2)c(Cl)c1`, the pEC50 on Bile acid receptor [5] was 5.89.
As for `O=C(O)c1cccc(/C=C/c2ccc(OCc3c(-c4c(Cl)cccc4Cl)noc3-c3ccccc3)cc2Cl)c1`, the pIC50 at Bile acid receptor [2] was 4.80. In addition, the result in assay [4] was inactive.
`CC(C)(C)c1onc(-c2c(Cl)cccc2Cl)c1COc1ccc(/C=C/c2cccc(C(=O)O)c2)c(Cl)c1` showed a negative logarithm of the EC50 (pEC50) at Bile acid receptor [5] of 5.89.
As for `CCCN(C(=O)c1ccc(OCc2c(-c3c(Cl)cccc3Cl)noc2C(C)C)cc1Cl)c1cccc(C(=O)O)c1`, the pEC50 at Bile acid receptor [5] is 5.68.
`CC(C)c1onc(-c2ccc3ccccc3c2)c1COc1ccc(/C=C/c2cccc(C(=O)O)c2)c(Cl)c1`: in assay [4], the result was inactive.
Take `O=C(O)c1cccc(/C=C/c2ccc(OCc3c(-c4c(Cl)cccc4Cl)noc3-c3ccc4ccccc4c3)cc2Cl)c1`: the pIC50 on Bile acid receptor [2] is 4.65. The result in assay [4] was inactive.
Take `CCCNC(=O)c1cccc(/C=C/c2ccc(OCc3c(-c4c(Cl)cccc4Cl)noc3C(C)C)cc2Cl)c1`: the negative-log EC50 (pEC50) at Bile acid receptor [5] was 5.05.
As for `O=C(O)c1cccc(/C=C/c2ccc(OCc3c(-c4c(Cl)cccc4Cl)noc3-c3ccc(-c4ccccc4)cc3)cc2Cl)c1`, the negative logarithm of the IC50 (pIC50) at Bile acid receptor [2] is 4.47. Further, the result in assay [4] was inactive.
At Bile acid receptor [5], `CC(C)c1onc(-c2c(Cl)cccc2Cl)c1COc1ccc(C(=O)N(Cc2ccccc2)c2cccc(C(=O)O)c2)c(Cl)c1` showed a pEC50 of 5.60.
Take `C/C=C1\C(=O)C[C@H]2[C@@H]3CCC4=CC(=O)CC[C@]4(C)[C@H]3CC[C@]12C`: the result in assay [3] and in assay [4] was inactive.
At Bile acid receptor [5], `CC(C)c1onc(-c2c(Cl)cccc2Cl)c1COc1ccc(/C=C/c2cccc(C(=O)N(Cc3ccccc3)Cc3ccccc3)c2)c(Cl)c1` had a negative-log EC50 (pEC50) of 4.45.
As for `O=C(O)c1cccc(NC(=O)c2ccc(OCc3c(-c4c(Cl)cccc4Cl)noc3-c3ccc(-c4ccccc4)cc3)cc2Cl)c1`, the result in assay [1] was Active. Also, on Bile acid receptor [2], the pIC50 was 5.43. Further, in assay [4], the outcome was inactive.
Compound `CC(C)c1onc(-c2c(Cl)cccc2Cl)c1COc1ccc(C(=O)N(C)c2cccc(C(=O)O)c2)c(Cl)c1` had a pEC50 on Bile acid receptor [5] of 5.51.

The values above are taken from ChEMBL document CHEMBL1147183, “Design, synthesis, and evaluation of non-steroidal farnesoid X receptor (FXR) antagonist” (Bioorg Med Chem, 2007).
